melting point: 178 to 182 °C
Structure (SMILES): CCCCNC(=O)C(C)CC(O)C1C[C@H](C)CCCCCCNc2cc(cc(OC)n2)C(=O)N1 (stereo partly drawn) [Example 11, N-Butyl-4-hydroxy-4-((9R)-16-methoxy-9-methyl-13-oxo-2,12,17-triaza-bicyclo[12.3.1]octadeca-1(17),14(18),15-trien-11-yl)-2-methyl-butyramide]

— patent US7612055B2, “Macrocyclic lactams and pharmaceutical use thereof” (Novartis AG, priority 2003, dated 2009)
